Test results from article PMC11544189 (Acta Pharmaceutica Sinica. B, 2024).

System: σ1 receptor
Assay: σ[…] protein/BiP dissociation assay
Format: cell-based

IC50: 362 nM
SMILES: CSC(=S)NCCNC(=O)CCC(=O)Nc1cccc2ccccc12 [Amylovis-201, Methyl (2-{[4-(1-naphthylamino)-4-oxobutanoyl]amino}ethyl)dithiocarbamate]
